The results in this text go back to ChEMBL document CHEMBL1201862, “PubChem BioAssay data set” (2004).

Test systems include Malme-3M; HCC 2998; HL-60; SK-MEL-5; HOP-92; SNB-19; 786-0; HCT-15; SF-295; LOX IMVI; KM12; SNB-75; CCRF-CEM; MOLT-4; M14; MCF7; NCI/ADR-RES; NCI-H460; SF-539; TK-10.
Holding throughout (assay): NCI anticancer screen, dose series, 48 h

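Following 48 hours of exposure in 96-well plates, responses at five concentrations were used to interpolate endpoints linearly. The concentration for 50% growth inhibition is given as GI50.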 Activity calls are given as the source filed them. Cut-off read from the data, not from the text of the source: active = GI50 up to about 1.1 µM and inactive = higher.

For the molecule `Cc1ccc(SCC(OCn2cnc3c(Cl)nc(N)nc32)[C@H](C)F)cc1` (stereo not given in full), the GI50 with Malme-3M was 88.9 µM (inactive); with HCC 2998, > 100 µM (inactive); with HL-60, 28.3 µM (inactive); in the assay on SK-MEL-5, 18.1 µM (inactive); with HOP-92, 63.7 µM (inactive); in the assay on SNB-19, > 100 µM (inactive). Moreover, the GI50 in the assay on 786-0 was 85.1 µM (inactive); in the assay with HCT-15, more than 100 µM; in the assay with SF-295 it was 53.7 µM (inactive); with LOX IMVI it was > 100 µM (inactive); in the assay on KM12 it was 81.8 µM (inactive); with SNB-75, > 100 µM (inactive). Moreover, the GI50 in the assay on CCRF-CEM was 39.1 µM (inactive); in the assay with MOLT-4 it was 18.9 µM (inactive); with M14, > 100 µM (inactive); in the assay on MCF7 it was 29.9 µM (inactive); in the assay on NCI/ADR-RES, 30.1 µM (inactive); in the assay with NCI-H460, 78.2 µM (inactive). The GI50 with SF-539 and in the assay on TK-10 was > 100 µM (inactive) in each case.
For `COc1ccc(SCc2cc(OCc3ccccc3)c(OCc3ccccc3)c(OCc3ccccc3)c2)cc1`, the GI50 in the assay on Malme-3M was 1.83 µM (inactive); with HCC 2998 it was 1.43 µM (inactive); in the assay on HL-60 it was 1.87 µM (inactive); in the assay on SK-MEL-5, 1.84 µM (inactive); in the assay with HOP-92 it was 1.65 µM (inactive); in the assay with SNB-19, 1.72 µM (inactive). Further, the GI50 with 786-0 was 1.55 µM (inactive); in the assay with HCT-15, 1.84 µM; in the assay on SF-295, 1.87 µM (inactive); in the assay with LOX IMVI, 1.54 µM (inactive); with KM12, 1.64 µM (inactive); with SNB-75, 1.58 µM (inactive). For the same molecule, the GI50 in the assay on CCRF-CEM was 1.72 µM (inactive); with MOLT-4, 1.56 µM (inactive); with M14, 1.92 µM (inactive); with MCF7 it was 1.71 µM (inactive); in the assay with NCI/ADR-RES, 1.71 µM (inactive); in the assay with NCI-H460, 2.38 µM (inactive). Also, the GI50 with SF-539 was 1.93 µM (inactive); with TK-10, 1.89 µM (inactive).
Regarding `C/C(CC(O)(C(F)(F)F)C(F)(F)F)=N\O`, the GI50 in the assay on Malme-3M, with HCC 2998, with HL-60, in the assay on SK-MEL-5, in the assay on HOP-92 and in the assay on SNB-19 was > 10 µM (inactive) throughout. Moreover, the GI50 was > 10 µM (inactive) in the assay on 786-0; more than 10 µM in the assay with HCT-15; > 10 µM (inactive) in the assay on SF-295; > 10 µM (inactive) with LOX IMVI; > 10 µM (inactive) in the assay with KM12; > 10 µM (inactive) in the assay on SNB-75. Besides, the GI50 with CCRF-CEM, in the assay on MOLT-4, in the assay on M14, with MCF7, in the assay with NCI/ADR-RES and in the assay with NCI-H460 was > 10 µM (inactive) each time. Further, the GI50 in the assay with SF-539 and in the assay on TK-10 was > 10 µM (inactive) throughout.
In the case of `Cc1ccc(Cc2nnc(S)[nH]2)cc1`, the GI50 in the assay with Malme-3M is > 100 µM (inactive); in the assay with HCC 2998 it was > 100 µM (inactive); in the assay on HL-60 it was 25.8 µM (inactive); with SK-MEL-5, 74.6 µM (inactive); with HOP-92 it was > 100 µM (inactive); in the assay on SNB-19, > 100 µM (inactive). In addition, the GI50 is 75.3 µM (inactive) in the assay with 786-0; more than 100 µM in the assay on HCT-15; 52.2 µM (inactive) with SF-295; 74 µM (inactive) in the assay with LOX IMVI; 79.1 µM (inactive) in the assay on KM12; > 100 µM (inactive) with SNB-75. For the same molecule, the GI50 in the assay on CCRF-CEM is 56.6 µM (inactive); with MOLT-4 it was > 100 µM (inactive); in the assay on M14, > 100 µM (inactive); in the assay on MCF7 it was > 100 µM (inactive); in the assay with NCI/ADR-RES, 77.6 µM (inactive); with NCI-H460, 78.2 µM (inactive). The GI50 with SF-539 and in the assay on TK-10 was > 100 µM (inactive) each time.
For the molecule `Nc1nc(N)c(-c2cccc(C(F)(F)F)c2)c(Cc2cccc(C(F)(F)F)c2)n1`, the GI50 is 12.4 µM (inactive) in the assay on Malme-3M; 3.1 µM (inactive) in the assay on HCC 2998; 2.2 µM (inactive) with HL-60; 2.98 µM (inactive) in the assay with SK-MEL-5; 12.2 µM (inactive) in the assay on HOP-92; 5.7 µM (inactive) with SNB-19. Moreover, the GI50 in the assay with 786-0 is 0.841 µM (active); in the assay on HCT-15 it was 1.44 µM; in the assay on SF-295 it was 1.52 µM (inactive); in the assay on LOX IMVI, 1.35 µM (inactive); with KM12, 5.15 µM (inactive); with SNB-75, 13.6 µM (inactive). Besides, the GI50 was 6.92 µM (inactive) in the assay with CCRF-CEM; 2.9 µM (inactive) with MOLT-4; 1.22 µM (inactive) in the assay with M14; 3.84 µM (inactive) with MCF7; 7.57 µM (inactive) in the assay on NCI/ADR-RES; 0.604 µM (active) in the assay on NCI-H460. For the same molecule, the GI50 in the assay on SF-539 was 4.41 µM (inactive); with TK-10 it was 7.67 µM (inactive).
In the case of `Cc1ccc(-c2c3nc(c(-c4ccc(C)cc4)c4ccc([nH]4)c(-c4ccc(OCC5COC(C)(C)O5)cc4)c4nc(c(-c5ccc(C)cc5)c5ccc2[nH]5)C=C4)C=C3)cc1` (stereo not given), the GI50 in the assay with Malme-3M was > 31.6 µM (inactive); in the assay on HCC 2998 it was > 31.6 µM (inactive); in the assay with HL-60 it was > 10 µM (inactive); in the assay on SK-MEL-5 it was > 31.6 µM (inactive); in the assay on HOP-92, > 100 µM (inactive); with SNB-19, > 31.6 µM (inactive). Besides, the GI50 is > 31.6 µM (inactive) in the assay with 786-0; more than 31.6 µM in the assay on HCT-15; 20.5 µM (inactive) with SF-295; > 31.6 µM (inactive) in the assay with LOX IMVI; > 31.6 µM (inactive) with KM12; 10.2 µM (inactive) with SNB-75. For the same molecule, the GI50 in the assay with CCRF-CEM was > 10 µM (inactive); with MOLT-4 it was > 31.6 µM (inactive); in the assay with M14 it was > 31.6 µM (inactive); with MCF7, > 31.6 µM (inactive); with NCI/ADR-RES, > 31.6 µM (inactive); in the assay with NCI-H460 it was > 31.6 µM (inactive). Further, the GI50 was > 31.6 µM (inactive) in the assay with SF-539 and 21 µM (inactive) with TK-10.
Consider `Nc1ccc2c(c1)C(=O)c1ccccc1-2`, for which the GI50 is > 100 µM (inactive) in the assay with Malme-3M; 93.3 µM (inactive) in the assay on HCC 2998; 30.2 µM (inactive) with HL-60; > 100 µM (inactive) in the assay with SK-MEL-5; 28.6 µM (inactive) in the assay with HOP-92; > 100 µM (inactive) in the assay with SNB-19. The GI50 with 786-0 was > 100 µM (inactive); in the assay on HCT-15 it was 95.5 µM; in the assay on SF-295, > 100 µM (inactive); in the assay on LOX IMVI it was 73.1 µM (inactive); in the assay with KM12 it was 62.5 µM (inactive); with SNB-75, > 100 µM (inactive). In addition, the GI50 in the assay with CCRF-CEM is 71.6 µM (inactive); in the assay with MOLT-4 it was 15.7 µM (inactive); with M14, 57.4 µM (inactive); in the assay on MCF7, > 100 µM (inactive); with NCI/ADR-RES it was > 100 µM (inactive); with NCI-H460, > 100 µM (inactive). The GI50 in the assay on SF-539 and in the assay with TK-10 was > 100 µM (inactive) each time.
